According to patent US9073864B2, “Aromatic ring compound” (TAKEDA PHARMACEUTICAL COMPANY LIMITED, priority 2012, dated 2015):

Molecular target: T1, human type glucagon receptor (Homo sapiens, UniProt P47871)
T1 construct: an about 1.4 kb DNA fragment containing glucagon receptor gene was recovered from the gel; expressed in transfected cells; host or cells: FreeStyle CHO cells (transient expression); membrane fraction prepared by homogenisation and ultracentrifugation
Assay: Measurement of glucagon binding inhibitory activity ([125I]-glucagon, receptor membrane protein)
Conditions: test compound 10 μM; 0.4% DMSO alone = 0%, unlabeled glucagon 1 μM = 100%; read-out: inhibitory rate (%) at 10 μM
Description: The glucagon binding inhibitory action of the compound of the present invention was evaluated by the following method.
(1) Cloning of Human Glucagon Receptor Gene
Human glucagon receptor gene was cloned by PCR reaction using human pancreas Marathon-ready cDNA (Clontech Laboratories, Inc.) as a template and the following primer set.
The PCR reaction was performed using Advantage 2 polymerase (Clontech Laboratories, Inc.) and according to the attached protocol. The obtained PCR product was subjected to agarose gel (1%) electrophoresis, an about 1.4 kb DNA fragment containing glucagon receptor gene was recovered from the gel, and digested with restriction enzymes EcoRI and NotI. The restriction enzyme-treated DNA was subjected to agarose gel (1%) electrophoresis, an about 1.4 kb DNA fragment was recovered and ligated with plasmid pMSRaneo digested with restriction enzymes EcoRI and NotI to give human type glucagon receptor expression plasmid DNA “pMSRaneo/hGCGR”. The base sequence of the inserted fragment was confirmed to be identical with the object sequence.
(2) Preparation of Glucagon Receptor Membrane Protein
Human type glucagon receptor was expressed using FreeStyle CHO Expression System (Invitrogen™). According to the manual attached to the FreeStyle CHO Expression System, and using the human type glucagon receptor expression plasmid DNA “pMSRaneo/hGCGR” produced in the above-mentioned (1), transient expression was performed by FreeStyle CHO cells. The above-mentioned DNA was transfected, and shaking culture was performed at 37° C., 8% CO2, 125 rpm for 2 days. The culture medium was centrifuged at 2,000 rpm for 10 min and the cells were recovered. The recovered cells were washed with PBS, suspended in homogenate buffer [10 mM NaHCO3 (pH 7.4), 1 mM EDTA, complete EDTA-free (Roche, Ltd., 1 tablet/50 ml)], and the cells were disrupted by a Polytron cell disruption apparatus (Kinematica AG). The disruption solution was centrifuged at 2,000 rpm for 10 min, and the supernatant was recovered. The supernatant was centrifuged at 35,000 rpm for 60 min, and the precipitate was suspended in a buffer [20 mM Tris-HCl (pH 7.4), 5 mM EDTA, complete EDTA-free (Roche, Ltd., 1 tablet/50 ml)] to give a glucagon receptor membrane protein.
(3) Measurement of Glucagon Binding Inhibitory Activity
The reaction was started by adding 50 μl of a glucagon receptor membrane protein solution diluted with a reaction buffer [50 mM HEPES (pH 7.4), 5 mM EGTA, 5 mM magnesium chloride, 0.1% BSA, 0.005% Tween20] to 100 μg/ml, 25 μl of a test compound solution containing 0.4% DMSO, which solution was prepared with the reaction buffer to a compound concentration of 40 μM, and 25 μl of radiolabeled glucagon ([^125I]-Receptor Grade Glucagon; Perkin Elmer Inc.) diluted with the reaction buffer to 200 pM to each well of a 96 well plate (Corning Incorporated). The plate was stood at room temperature for 90 min, then the reaction solution was transferred from the reaction plate onto a 96 well unifilter GF/C plate (Perkin Elmer Inc.) by a cell harvester (Perkin Elmer Inc.), and suctioned to collect a membrane fraction on the filter. The filter was immersed in a 0.3% polyethyleneimine solution in advance to prevent non-specific adsorption of the labeled ligand. The filter was washed 4 times with the reaction buffer, and dried at 42° C. for 2 hr. To each well was added 25 μl of scintillator (MicroScint0; Perkin Elmer Inc.), and the amount of fluorescence was measured by a microplate scintillation counter (TopCount NXT™; Perkin Elmer Inc.).
The inhibitory rate (%) of the well added with the test compound (10 μM; containing 0.4% DMSO solution) was calculated wherein the reaction rate of the well added with 0.4% DMSO alone was 0% inhibitory rate and that of the well added with unlabeled glucagon (final concentration 1 μM) was 100% inhibitory rate.

T1 sequence (P47871 26-477): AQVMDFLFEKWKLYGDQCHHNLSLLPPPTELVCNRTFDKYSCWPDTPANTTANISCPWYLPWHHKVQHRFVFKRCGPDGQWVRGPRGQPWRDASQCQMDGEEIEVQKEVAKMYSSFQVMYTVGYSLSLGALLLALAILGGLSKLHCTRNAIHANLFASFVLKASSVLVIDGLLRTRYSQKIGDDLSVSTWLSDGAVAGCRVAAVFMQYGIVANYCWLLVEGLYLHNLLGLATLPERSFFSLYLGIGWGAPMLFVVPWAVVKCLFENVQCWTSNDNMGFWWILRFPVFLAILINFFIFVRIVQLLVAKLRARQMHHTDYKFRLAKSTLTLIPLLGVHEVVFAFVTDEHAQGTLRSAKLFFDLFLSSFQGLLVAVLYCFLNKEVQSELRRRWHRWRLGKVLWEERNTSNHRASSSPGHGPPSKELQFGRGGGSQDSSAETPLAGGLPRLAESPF

First: Cc1cc(-c2ccc(C(F)(F)F)cn2)ccc1C(CCC(F)(F)F)Nc1ccc(C(=O)N2CCC[C@@H](C(=O)O)C2)cc1 (stereo partly drawn) [Example 1, (3R)-1-(4-((4,4,4-trifluoro-1-(2-methyl-4-(5-(trifluoromethyl)pyridin-2-yl)phenyl)butyl)amino)benzoyl)piperidine-3-carboxylic acid]
Second: Cc1cc(-c2ccc(C(F)(F)F)nc2)ccc1C(CCC(F)(F)F)Nc1ccc(C(=O)N2CCC[C@@H](C(=O)O)C2)cc1 (mixture of isomers) [Example 9, (3R)-1-(4-((4,4,4-trifluoro-1-(2-methyl-4-(6-(trifluoromethyl)pyridin-3-yl)phenyl)butyl)amino)benzoyl)piperidine-3-carboxylic acid]
The inhibition at 10 µM of the first is lower: 84% for the first, 90% for the second.

Going from `CCc1cnc(-c2ccc(C(CCC(F)(F)F)Nc3ccc(C(=O)N4CCC[C@@H](C(=O)O)C4)cc3)c(C)c2)nc1` (stereo partly drawn) [Example 4, (3R)-1-(4-((1-(4-(5-ethylpyrimidin-2-yl)-2-methylphenyl)-4,4,4-trifluorobutyl)amino)benzoyl)piperidine-3-carboxylic acid] to `Cc1cc(-c2ncc(Cl)cn2)ccc1C(CCC(F)(F)F)Nc1ccc(C(=O)N2CCC[C@@H](C(=O)O)C2)cc1` (mixture of isomers) [Example 12, (3R)-1-(4-((1-(4-(5-chloropyrimidin-2-yl)-2-methylphenyl)-4,4,4-trifluorobutyl)amino)benzoyl)piperidine-3-carboxylic acid], the inhibition at 10 µM rises from 95% to 96%.

First: Cc1cc(-c2ccc(Cl)cc2)ccc1C(CCC(F)(F)F)Nc1ccc(C(=O)N2CCC[C@@H](C(=O)O)C2)cn1 (stereo partly drawn) [Example 15, (3R)-1-((6-((1-(4′-chloro-3-methylbiphenyl-4-yl)-4,4,4-trifluorobutyl)amino)pyridin-3-yl)carbonyl)piperidine-3-carboxylic acid]
Second: Cc1cc(-c2ccc(F)cc2)ccc1C(CCC(F)(F)F)Nc1ccc(C(=O)N2CCC[C@@H](C(=O)O)C2)cc1 (stereo partly drawn) [Example 5, (3R)-1-(4-((4,4,4-trifluoro-1-(4′-fluoro-3-methylbiphenyl-4-yl)butyl)amino)benzoyl)piperidine-3-carboxylic acid]
The inhibition at 10 µM of the first is higher: 92% for the first, 86% for the second.

`Cc1cc(-c2ccc(C(F)(F)F)cn2)ccc1C(CCC(F)(F)F)Nc1ccc(C(=O)N2CCC[C@@H](C(=O)O)C2)cc1` (mixture of isomers) [Example 10, (3R)-1-(4-((4,4,4-trifluoro-1-(2-methyl-4-(5-(trifluoromethyl)pyridin-2-yl)phenyl)butyl)amino)benzoyl)piperidine-3-carboxylic acid] and `Cc1cc(-c2ccc(C(F)(F)F)nc2)ccc1C(CCC(F)(F)F)Nc1ccc(C(=O)N2CCC[C@@H](C(=O)O)C2)cc1` (stereo partly drawn) [Example 14, (3R)-1-(4-((4,4,4-trifluoro-1-(2-methyl-4-(6-(trifluoromethyl)pyridin-3-yl)phenyl)butyl)amino)benzoyl)piperidine-3-carboxylic acid] are the same in inhibition at 10 µM: 88% for the first, 88% for the second.

Compared with `CCc1cnc(-c2ccc(C(CCC(F)(F)F)Nc3ccc(C(=O)N4CCC[C@@H](C(=O)O)C4)cc3)c(C)c2)nc1` (mixture of isomers) [Example 13, (3R)-1-(4-((1-(4-(5-ethylpyrimidin-2-yl)-2-methylphenyl)-4,4,4-trifluorobutyl)amino)benzoyl)piperidine-3-carboxylic acid], `Cc1cc(-c2ncc(Cl)cn2)ccc1C(CCC(F)(F)F)Nc1ccc(C(=O)N2CCC[C@@H](C(=O)O)C2)cc1` (stereo partly drawn) [Example 2, (3R)-1-(4-((1-(4-(5-chloropyrimidin-2-yl)-2-methylphenyl)-4,4,4-trifluorobutyl)amino)benzoyl)piperidine-3-carboxylic acid] is higher in inhibition at 10 µM: 84% for the first, 92% for the second.

Going from `O=C(O)[C@@H]1CCCN(C(=O)c2ccc(NC(CCC(F)(F)F)c3ccc(-c4ccc(Cl)cc4)cc3)cc2)C1` (stereo partly drawn) [Example 27, (3R)-1-(4-((1-(4′-chlorobiphenyl-4-yl)-4,4,4-trifluorobutyl)amino)benzoyl)piperidine-3-carboxylic acid] to `Cc1cc(-c2ccc(C#N)cc2)ccc1C(CCC(F)(F)F)Nc1ccc(C(=O)N2CCC[C@@H](C(=O)O)C2)cc1` (stereo partly drawn) [Example 8, (3R)-1-(4-((1-(4′-cyano-3-methylbiphenyl-4-yl)-4,4,4-trifluorobutyl)amino)benzoyl)piperidine-3-carboxylic acid], the inhibition at 10 µM rises from 86% to 91%.

Compared with `Cc1cc(-c2ccc(Cl)cc2)ccc1C(Nc1ccc(C(=O)N2CCC[C@@H](C(=O)O)C2)cc1)C1CCCCC1` (stereo partly drawn) [Example 16, (3R)-1-(4-(((4′-chloro-3-methylbiphenyl-4-yl)(cyclohexyl)methyl)amino)benzoyl)piperidine-3-carboxylic acid], `Cc1cc(-c2ccc(Cl)cc2)ccc1C(Nc1ccc(C(=O)N2CCC[C@@H](C(=O)O)C2)cn1)C1CCCCC1` (stereo partly drawn) [Example 17, (3R)-1-((6-(((4′-chloro-3-methylbiphenyl-4-yl)(cyclohexyl)methyl)amino)pyridin-3-yl)carbonyl)piperidine-3-carboxylic acid] is lower in inhibition at 10 µM: 93% for the first, 92% for the second.

Going from `Cc1cc(-c2ccc(C(F)(F)F)cn2)ccc1C(Nc1ccc(C(=O)N2CCC[C@@H](C(=O)O)C2)cc1)C(C)C` (stereo partly drawn) [Example 26, (3R)-1-(4-((2-methyl-1-(2-methyl-4-(5-(trifluoromethyl)pyridin-2-yl)phenyl)propyl)amino)benzoyl)piperidine-3-carboxylic acid] to `Cc1cc(-n2ccc(C(C)C)n2)ccc1C(CCC(F)(F)F)Nc1ccc(C(=O)N2CCC[C@@H](C(=O)O)C2)cc1` (mixture of isomers) [Example 19, (3R)-1-(4-((4,4,4-trifluoro-1-(4-(3-isopropyl-1H-pyrazol-1-yl)-2-methylphenyl)butyl)amino)benzoyl)piperidine-3-carboxylic acid], the inhibition at 10 µM falls from 88% to 87%.

Going from `Cc1cc(-n2cc3c(n2)CCCC3)ccc1C(CCC(F)(F)F)Nc1ccc(C(=O)N2CCC[C@@H](C(=O)O)C2)cc1` (mixture of isomers) [Example 20, (3R)-1-(4-((4,4,4-trifluoro-1-(2-methyl-4-(4,5,6,7-tetrahydro-2H-indazol-2-yl)phenyl)butyl)amino)benzoyl)piperidine-3-carboxylic acid] to `O=C(O)[C@@H]1CCCN(C(=O)c2ccc(NC(c3ccc(-c4ccc(Cl)cc4)cc3)C3CCCCC3)cc2)C1` (stereo partly drawn) [Example 24, (3R)-1-(4-(((4′-chlorobiphenyl-4-yl)(cyclohexyl)methyl)amino)benzoyl)piperidine-3-carboxylic acid], the inhibition at 10 µM falls from 93% to 84%.

Tested on: Wistar fatty rat
Assay: Hypoglycemic action in Wistar fatty rat (single administration)
Type: in vivo
Conditions: 10 mg/kg oral, 4 hr after administration, male Wistar fatty rats, change relative to non-administration group
Description: Hypoglycemic Action in Wistar Fatty Rat (Single Administration)
Wistar fatty rats (male, 25- to 26-week-old) were orally administered with a 0.5% methylcellulose suspension containing a test compound (10 mg/kg body weight) (test compound administration group, 4-6 per group) or 0.5% methylcellulose solution (test compound non-administration group, 4-6 per group), blood samples were collected from the rat tail vein 4 hr after the administration, and the hypoglycemic action was evaluated using the blood. The blood glucose was measured using Model 7180 HITACHI automatic analyzer (Hitachi, Ltd.).
In each animal of the test compound administration group and the test compound non-administration group, changes in the blood glucose level from that before administration was calculated, the difference between the “average change of test compound non-administration group” and the “change in each animal of test compound administration group” was calculated as the “change in blood glucose due to test compound”, and the average of each group was taken as the “blood glucose change value (mg/dL)”.

Going from `Cc1cc(-c2ccc(C(F)(F)F)cn2)ccc1C(CCC(F)(F)F)Nc1ccc(C(=O)N2CCC[C@@H](C(=O)O)C2)cc1` (stereo partly drawn) [Example 1, (3R)-1-(4-((4,4,4-trifluoro-1-(2-methyl-4-(5-(trifluoromethyl)pyridin-2-yl)phenyl)butyl)amino)benzoyl)piperidine-3-carboxylic acid] to `Cc1cc(-c2ncc(Cl)cn2)ccc1C(CCC(F)(F)F)Nc1ccc(C(=O)N2CCC[C@@H](C(=O)O)C2)cc1` (stereo partly drawn) [Example 2, (3R)-1-(4-((1-(4-(5-chloropyrimidin-2-yl)-2-methylphenyl)-4,4,4-trifluorobutyl)amino)benzoyl)piperidine-3-carboxylic acid], the “blood glucose change value” rises from -162.9 mg/dL to -149.8 mg/dL.

`CCc1cnc(-c2ccc(C(CCC(F)(F)F)Nc3ccc(C(=O)N4CCC[C@@H](C(=O)O)C4)cc3)c(C)c2)nc1` (stereo partly drawn) [Example 4, (3R)-1-(4-((1-(4-(5-ethylpyrimidin-2-yl)-2-methylphenyl)-4,4,4-trifluorobutyl)amino)benzoyl)piperidine-3-carboxylic acid] was tested, and the “blood glucose change value” was -130.4 mg/dL.
